The values that follow are results of earlier work, collected in patent publication US11452694B2, “High concentration dosage forms of pridopidine” (PRILENIA NEUROTHERAPEUTICS LTD., priority 2017, dated 2022).

Molecules are shown by their SMILES.

In this series the test system is neuroblastoma cell line. The following applies: SIR-dependent manner.

Regarding `CCCN1CCC(c2cccc(S(C)(=O)=O)c2)CC1` [Pridopidine, 4-(3-(Methylsulfonyl)phenyl)-1-propylpiperidine], the “secretion of brain-derived neurotrophic factor (BDNF)” value is listed as “enhance secretion”.
